Results: BindingDB's records for patent WO2022129953 (HEPTARES THERAPEUTICS LIMITED, 2022)
Where “and” joins values, the source holds several entries; their conditions need not be identical. Equal values may be shown once.

These molecules were tested against Replicase polyprotein 1ab (Severe acute respiratory syndrome coronavirus 2, UniProt P0DTD1) (assay: SARS-CoV-2 Mpro enzyme assay).
Description: The activity of SARS-Cov-2 Mpro was determined in a Fluorescence Resonance Energy Transfer (FRET)-based enzymatic assay using FRET Substrate Dabcyl-KTSAVLQSGFRKM-E(Edans)-Amide. In brief, […] of test compounds (concentrations ranging from […]) was preincubated with […] of 20 nM (final concentration) Mpro enzyme for 30 min at 30 °C in an assay buffer containing 20 mM HEPES, 120 mM NaCI, 0.4 mM EDTA, and 4 mM DTT and 20% glycerol. Reaction was initiated by addition of 10 pL of […] (final concentration) of FRET substrate (Dabcyl-KTSAVLQSGFRKM-E (Edans)-Amide). The reaction was incubated for 1 h and the resulting fluorescent intensity was measured at Ex=360 nm/Em=490 nm at 30 °C using a SPARK 20M plate reader (Tecan). Boceprevir was used a reference standard compound. pICso and pKi were determined using 4PL GraphPad Prism and data were represented as a mean n=2± SD.
Molecule `NC(=O)/C(=N\O)C(C[C@@H]1CCNC1=O)NC(=O)[C@H](CC1CC1)NC(=O)/C=C/c1ccccc1` (stereo partly specified) [WO2022129953, Example 4] has an IC50 of 1 µM.
`O=C(N[C@@H](CC1CC1)C(=O)NC(C[C@@H]1CCNC1=O)C(=O)C(=O)NC1CC1)OCc1ccccc1` (stereo partly specified) [WO2022129953, Example 29] showed an IC50 of 0.016 µM.
With `NC(=O)C(=O)C(C[C@@H]1CCNC1=O)NC(=O)[C@H](CC1CC1)NC(=O)/C=C/c1ccc(Cl)cc1F` (stereo partly specified) [WO2022129953, Example 1] the IC50 was 0.013 µM.
In the case of `CC[C@H](CC(=O)N[C@@H](CC(C)(C)C)C(=O)NC(C[C@@H]1CCNC1=O)C(=O)C(=O)NC1CC1)c1ccccc1` (stereo partly specified) [WO2022129953, Example 15], the IC50 is reported as 0.01 µM.
`CC[C@@H](CC(=O)N[C@@H](CC1CC1)C(=O)NC(C[C@@H]1CCNC1=O)C(=O)C(=O)NC1CC1)c1ccccc1` (stereo partly specified) [WO2022129953, Example 32] gave an IC50 of 0.013 µM.
`CCNC(=O)C(=O)C(C[C@@H]1CCNC1=O)NC(=O)[C@H](CC1CC1)NC(=O)/C=C/c1ccc(Cl)cc1F` (stereo partly specified) [WO2022129953, Example 19] was tested, and the IC50 was 0.013 µM.
`O=C(/C=C/c1ccc(Cl)cc1Cl)N[C@@H](CC1CC1)C(=O)NC(C[C@@H]1CCNC1=O)C(=O)C(=O)NC1CC1` (stereo partly specified) [WO2022129953, Example 25] gave an IC50 of 0.01 µM.
With `CC(C)(C)C[C@H](NC(=O)/C=C/c1ccc(Cl)cc1F)C(=O)NC(C[C@@H]1CCNC1=O)C(=O)C(N)=O` (stereo partly specified) [WO2022129953, Example 22] the IC50 was 0.00631 µM.
`NC(=O)C(=O)C(CC1CC1)NC(=O)[C@H](CC1CC1)NC(=O)/C=C/c1ccccc1` (stereo partly specified) [WO2022129953, Example 6] was tested, and the IC50 was 5.01 µM.
In the case of `O=C(/C=C/c1ccc(Cl)cc1F)N[C@@H](CC1CCC1)C(=O)NC(C[C@@H]1CCNC1=O)C(=O)C(=O)NC1CC1` (stereo partly specified) [WO2022129953, Example 31], the IC50 is reported as 0.025 µM.
`CC[C@@H](CC(=O)N[C@@H](CC(C)(C)C)C(=O)NC(C[C@@H]1CCNC1=O)C(=O)C(=O)NC1CC1)c1ccccc1` (stereo partly specified) [WO2022129953, Example 14] showed an IC50 of 0.0079 µM.
Work on `CC(C)C[C@H](NC(=O)/C=C/c1ccc(Cl)cc1F)C(=O)NC(C[C@@H]1CCNC1=O)C(=O)C(N)=O` (stereo partly specified) [WO2022129953, Example 18] yielded an IC50 of 0.013 µM.
For `O=C(/C=C/c1ccc(Cl)cc1F)N[C@@H](CC1CC1)C(=O)NC(C[C@@H]1CCNC1=O)C(=O)C(=O)NC1CC1` (stereo partly specified) [WO2022129953, Example 21], the IC50 was 0.00794 µM and 0.016 µM.
For `CC(C)(C)C[C@H](NC(=O)/C=C/c1ccc(Cl)cc1Cl)C(=O)NC(C[C@@H]1CCNC1=O)C(=O)C(=O)NC1CC1` (stereo partly specified) [WO2022129953, Example 10], the IC50 was 0.00631 µM.
`NC(=O)C(=O)C(C[C@@H]1CCNC1=O)NC(=O)[C@H](CC1CC1)NC(=O)/C=C/c1ccccc1` (stereo partly specified) [WO2022129953, Example 2] showed an IC50 of 0.02 µM.
`CC[C@H](CC(=O)N[C@@H](CC1CC1)C(=O)NC(C[C@@H]1CCNC1=O)C(=O)C(=O)NC1CC1)c1ccccc1` (stereo partly specified) [WO2022129953, Example 33] was tested, and the IC50 was 0.025 µM.
`C[C@@H](CC(=O)N[C@@H](CC(C)(C)C)C(=O)NC(C[C@@H]1CCNC1=O)C(=O)C(=O)NC1CC1)c1ccccc1` (stereo partly specified) [WO2022129953, Example 12] was tested, and the IC50 was 0.016 µM.
`CC(C)(C)C[C@H](NC(=O)/C=C/c1ccc(Cl)cc1F)C(=O)NC(C[C@@H]1CCNC1=O)C(=O)C(=O)NC1CC1` (stereo partly specified) [WO2022129953, Example 11] showed an IC50 of 0.00794 µM.
For `O=C(CCc1ccc(Cl)cc1Cl)N[C@@H](CC1CC1)C(=O)NC(C[C@@H]1CCNC1=O)C(=O)C(=O)NC1CC1` (stereo partly specified) [WO2022129953, Example 30], the IC50 was 0.02 µM.
`CC(C)(C)C[C@H](NC(=O)/C=C/c1ccc(Cl)cc1Cl)C(=O)NC(C[C@@H]1CCNC1=O)C(=O)C(N)=O` (stereo partly specified) [WO2022129953, Example 27] was tested, and the IC50 was 0.0079 µM.
With `NC(=O)C(=O)C(CC1CCCC1)NC(=O)[C@H](CC1CC1)NC(=O)/C=C/c1ccccc1` (stereo partly specified) [WO2022129953, Example 7] the IC50 was 7.94 µM.
With `CC(C)(C)NC(=O)C(=O)C(CC1CCNC1=O)NC(=O)[C@H](CC1CC1)NC(=O)/C=C/c1ccc(Cl)cc1F` (stereo partly specified) [WO2022129953, Example 5] the IC50 was 0.501 µM.
With `CC(C)(C)C[C@H](NC(=O)C[C@H](c1ccccc1)C(F)(F)F)C(=O)NC(C[C@@H]1CCNC1=O)C(=O)C(=O)NC1CC1` (stereo partly specified) [WO2022129953, Example 17] the IC50 was 0.013 µM.
Molecule `CC(C)(C)C[C@H](NC(=O)/C=C/c1ccc(Cl)cc1Cl)C(=O)NC(C[C@@H]1CCNC1=O)C(=O)C(=O)C#N` (stereo partly specified) [WO2022129953, Example 9] has an IC50 of 0.398 µM.
`C[C@H](CC(=O)N[C@@H](CC(C)(C)C)C(=O)NC(C[C@@H]1CCNC1=O)C(=O)C(=O)NC1CC1)c1ccccc1` (stereo partly specified) [WO2022129953, Example 13] was tested, and the IC50 was 0.016 µM.
`CCNC(=O)C(=O)C(C[C@@H]1CCNC1=O)NC(=O)[C@H](CC1CC1)NC(=O)/C=C/c1ccc(Cl)cc1Cl` (stereo partly specified) [WO2022129953, Example 24] showed an IC50 of 0.013 µM.
In the case of `CCNC(=O)C(=O)C(C[C@@H]1CCNC1=O)NC(=O)[C@H](CC(C)(C)C)NC(=O)/C=C/c1ccc(Cl)cc1Cl` (stereo partly specified) [WO2022129953, Example 26], the IC50 is reported as 0.01 µM.
With `CCNC(=O)C(=O)C(C[C@@H]1CCNC1=O)NC(=O)[C@H](CC(C)(C)C)NC(=O)/C=C/c1ccc(Cl)cc1F` (stereo partly specified) [WO2022129953, Example 23] the IC50 was 0.013 µM.
`CC(C)(C)C[C@H](NC(=O)C[C@@H](c1ccccc1)C(F)(F)F)C(=O)NC(C[C@@H]1CCNC1=O)C(=O)C(=O)NC1CC1` (stereo partly specified) [WO2022129953, Example 16] was tested, and the IC50 was 0.02 µM.
With `NC(=O)C(=O)C(C[C@@H]1CCNC1=O)NC(=O)[C@H](CC1CC1)NC(=O)/C=C/c1ccc(Cl)cc1Cl` (stereo partly specified) [WO2022129953, Example 20] the IC50 was 0.1 µM.
`NC(=O)C(=O)C(C[C@@H]1CCNC1=O)NC(=O)[C@H](CC1CC1)NC(=O)OCc1ccccc1` (stereo partly specified) [WO2022129953, Example 3] showed an IC50 of 0.025 µM.
